Read-outs that look alike come from different tables or passages of the source.
Experiments:
[1] = test system: gastric lesions (ulcers) provoked by nonsteroid antiinflammatory agent; assay: Anti-ulcer activity: protection of gastric lesions provoked by a medicamentous ulcer forming agent (nonsteroid antiinflammatory agent); format: in vivo, male rats of OFA (Iffa Credo) strain; conditions: for ED50: Rattus norvegicus, po, read-out: AD50 (active dose 50)
Experimental: (§1) Batches of 10 to 30 male rats of OFA (Iffa Credo) strain, weighing 160-180 g, are placed on a water diet 24 hours before the oral administration of the product studied. Thirty minutes later, a medicamentous ulcer-forming agent or a necrosing agent (for example absolute ethanol) is administered by the oral route at doses which cause in the control animals a maximum gastric ulceration. The stomachs are removed, according to the test, 6 and 1 hr. respectively after the last treatment. The gastric lesions are then assessed macroscopically (dimensioning and measurement of the size of the ulcers).
(§2) They are expressed in the form of % of inhibition of the ulcers. The active dose 50 is determined graphically.

[2] = test system: gastric lesions (ulcers) provoked by ethanol; assay: Anti-ulcer activity: protection of gastric lesions provoked by a necrosing agent (ethanol); format: in vivo, male rats of OFA (Iffa Credo) strain; conditions: for ED50: Rattus norvegicus, po, read-out: AD50 (active dose 50)
Experimental: as §1, §2

oedema (carragenin) = assay: Anti-inflammatory activity: inhibition of carragenin oedema of the paw; format: in vivo, male rats of CD (Charles River) strain
Experimental: Batches of 6 to 12 male rats of CD (Charles River) strain, weighing 120-130 g, receive for food and drink a 9 o/oo solution of sodium chloride and 200 o/oo of glucose 18 hours before the test.
The volume of the paw is measured by plethysmography at regular intervals.
The active dose 50 and its limits are determined from the linear regression. The significance of the results is given by the Student "t" test (*, ** and *** for p<0.05, p<0.01 and […]).

[3] = test system: painful reactions (phenylbenzoquinone); assay: Analgesic activity: inhibition of painful reactions (twists and stretches) to phenylbenzoquinone; format: in vivo, male mice of CDl (Charles River) strain; conditions: for DA50 (active dose): VO, linear regression
Experimental: Batches of 6 to 18 male mice of CDl (Charles River) strain, weighing 18 to 22 g, receive by the intraperitoneal route a water-alcohol 0.02% solution of phenylbenzoquinone 1 hour after treatment by the oral route. The number of painful reactions is counted from the 5th to the 10th minute.
The active dose and its limits are determined from the linear regression.

in vivo = conditions: fasting Sprague Dawley rat, oral route
total acid secretion = assay: Anti-secretory activity: inhibition of total acid secretion after pyloric ligature; format: in vivo, male rats of OFA (Iffa Credo) strain; conditions: for ED50: Rattus norvegicus, 4 h, read-out: AD50 (active dose 50); for % of inhibition of the total acid secretion: 4 hours
Experimental: A pyloric ligature is made under ether anaesthesia on batches of 5 male rats of OFA (Iffa Credo) strain weighing 180-200 g. The product studied is administered by the oral or sub-cutaneous route at the time of the ligature. The animals are sacrificed 4 hours later and the acidity of the gastric fluid collected is titered by 0.1N sodium hydroxide to pH 4 and 7.
They are expressed in percentage of inhibition of the total acid secretion. The active dose 50 is determined from the linear regression. The significance is given by the Student "t" test (* and ** for p<0.05 and p<0.01).

[4] = VO, NSAID lesions, determined graphically
[5] = VO, ethanol lesions, determined graphically
[6] = 0.06 mg.kg-1 VO, ethanol lesions
[7] = 0.25 mg.kg-1 VO, ethanol lesions

Compound	% of protection of lesions provoked ([1]; 4 mg.kg-1 VO, NSAID lesions)	% of protection of lesions provoked ([1]; 8 mg.kg-1 VO, NSAID lesions)	% of protection of lesions provoked ([1]; 16 mg.kg-1 VO, NSAID lesions)	% of protection of lesions provoked ([1]; 32 mg.kg-1 VO, NSAID lesions)	ED50 [1, 4]	% of protection of lesions provoked ([2]; 1 mg.kg-1 VO, ethanol lesions)	% of protection of lesions provoked ([2]; 4 mg.kg-1 VO, ethanol lesions)	ED50 [2, 5]	% of inhibition of the oedema (oedema (carragenin); 4 mg.kg-1 VO)	% of inhibition of the oedema (oedema (carragenin); 16 mg.kg-1 VO)	% of inhibition of the oedema (oedema (carragenin); 64 mg.kg-1 VO)	% of inhibition of the oedema (oedema (carragenin); 128 mg.kg-1 VO)	% of inhibition of the oedema (oedema (carragenin); 256 mg.kg-1 VO)	% of inhibition of the painful reactions ([3]; 16 mg.kg-1 VO)	% of inhibition of the painful reactions ([3]; 32 mg.kg-1 VO)	% of inhibition of the painful reactions ([3]; 64 mg.kg-1 VO)	% of inhibition of the painful reactions ([3]; 128 mg.kg-1 VO)	% of inhibition of the painful reactions ([3]; 256 mg.kg-1 VO)	DA50 (active dose) [3]	LD50 (in vivo)	further results
O=c1ccc2cccnc2n1-c1cccc(C(F)(F)F)c1 [Example 4, 1-(3-trifluoromethylphenyl)1,2-dihydro 2-oxo 1,8-naphthyridine]	11%	40%	68%	81%	12 mg/kg	6%	87%	2.2 mg/kg	14%	21%	80%	70%	83%	6%	39%	37%	79%	93%	62.0 mg · kg - 1	> 256 mg/kg	% of protection of lesions provoked ([2]; 2 mg.kg-1 VO, ethanol lesions): 52%
Cc1cc2cccnc2n(-c2ccccc2)c1=O [Example 11, 1-phenyl 1,2-dihydro 2-oxo 3-methyl 1,8-naphthyridine]						94%	98%														% of protection of lesions provoked ([1]; 0.25 mg.kg-1 VO, NSAID lesions): 1%; % of protection of lesions provoked ([1]; 0.5 mg.kg-1 VO, NSAID lesions): 34%; % of protection of lesions provoked ([1]; 1 mg.kg-1 VO, NSAID lesions): 75%; % of protection of lesions provoked ([1]; 2 mg.kg-1 VO, NSAID lesions): 100%; ED50 [1]: 0.67 mg/kg; % of protection of lesions provoked [2, 6]: 86%; % of protection of lesions provoked [2, 7]: 95%; ED50 [2]: < 0.06 mg/kg; ED50 (total acid secretion; sc): 0.065 mg/kg; % of inhibition of the total acid secretion (total acid secretion; administered SC, 0.03 mg.kg-1): 37%; % of inhibition of the total acid secretion (total acid secretion; administered SC, 0.06 mg.kg-1): 46%; % of inhibition of the total acid secretion (total acid secretion; administered SC, 0.125 mg.kg-1): 63%; % of inhibition of the total acid secretion (total acid secretion; administered SC, 0.25 mg.kg-1): 76%; % of inhibition of the total acid secretion (total acid secretion; administered SC, 0.5 mg.kg-1): 81%
Cc1cc2cccnc2n(-c2cccc(C(F)(F)F)c2)c1=O [Examples 3 & 10, 1-(3-trifluoromethylphenyl)1,2-dihydro 2-oxo 3-methyl 1,8-naphthyridine]	22%	62%	87%	95%	6.5 mg/kg	79%		0.37 mg/kg	10%	31%	47%	61%	64%	30%	26%	57%	58%	73%	69.4 mg · kg - 1	> 256 mg/kg	% of protection of lesions provoked ([1]; 2 mg.kg-1 VO, NSAID lesions): 15%; % of protection of lesions provoked [2, 6]: 0%; % of protection of lesions provoked ([2]; 0.125 mg.kg-1 VO, ethanol lesions): 17%; % of protection of lesions provoked [2, 7]: 42%; % of protection of lesions provoked ([2]; 0.5 mg.kg-1 VO, ethanol lesions): 64%; ED50 (total acid secretion; administered SC, linear regression): 0.72 mg/kg; ED50 (total acid secretion; po, administered VO, linear regression): 0.7 mg/kg; % of inhibition of the total acid secretion (total acid secretion; administered SC, 0.25 mg.kg-1): 4%; % of inhibition of the total acid secretion (total acid secretion; administered SC, 0.5 mg.kg-1): 38%; % of inhibition of the total acid secretion (total acid secretion; administered SC, 1 mg.kg-1): 65%; % of inhibition of the total acid secretion (total acid secretion; administered SC, 2 mg.kg-1): 90%; % of inhibition of the total acid secretion (total acid secretion; administered VO, 0.125 mg.kg-1): 2%; % of inhibition of the total acid secretion (total acid secretion; administered VO, 0.25 mg.kg-1): 18%; % of inhibition of the total acid secretion (total acid secretion; administered VO, 0.5 mg.kg-1): 59%; % of inhibition of the total acid secretion (total acid secretion; administered VO, 1 mg.kg-1): 56%; % of inhibition of the total acid secretion (total acid secretion; administered VO, 2 mg.kg-1): 75%; ED50 (oedema (carragenin); Rattus norvegicus, po, VO, linear regression, read-out: AD50 (active dose 50)): 73.3 mg/kg; % of inhibition of the painful reactions ([3]; 8 mg.kg-1 VO): 6%

Source: patent US4622328A, “Phenyl-naphthyridines and drugs containing them, particularly anti-ulcer drugs” (priority 1984, dated 1986)
